Values after ≈ are worked out from the molar mass of the structure shown.

Assay [1] concerns Acinetobacter baumannii NCTC 13420. The experiment in a line: MIC, broth microdilution (CLSI) versus planktonic bacteria. The assay is classed as cell-based. The conditions noted are these: NCTC13420; Acinetobacter baumannii NCTC 13420; 16-20 h; mode of three independent experiments; read-out: MIC, Ab NCTC 13420.
Assay [2] has as its system Acinetobacter baumannii ATCC 19606. Described as above. The class given is cell-based. The conditions noted are these: ATCC19606; Acinetobacter baumannii ATCC 19606; 16-20 h; mode of three independent experiments; read-out: MIC, Ab ATCC 19606.
In assay [3] the test system is Enterobacter cloacae NCTC 13406. Described as above. The class given is cell-based. To be noted: NCTC13406; Enterobacter cloacae NCTC 13406; 16-20 h; mode of three independent experiments; read-out: MIC, Ecl NCTC 13406.
In assay [4] the test system is Escherichia coli ATCC 25922. The assay is described as above. The class given is cell-based. To be noted: ATCC25922; Escherichia coli ATCC 25922; 16-20 h; mode of three independent experiments; read-out: MIC, Ec ATCC 25922.
Assay [5] has as its system E. coli ATCC BAA-2452. The assay is described as above. The class given is cell-based. To be noted: Escherichia coli ATCC BAA-2452; 16-20 h; mode of three independent experiments; read-out: MIC, Ec ATCC BAA 2452.
In assay [6] the test system is E. coli NCTC 13476. The assay is described as above. The class given is cell-based. The conditions noted are these: NCTC13476; Escherichia coli NCTC 13476; 16-20 h; mode of three independent experiments; read-out: MIC, Ec NCTC 13476.
Assay [7] relates to E. coli MG1655. Described as above. The conditions noted are these: Escherichia coli, MG1655, read-out: MIC, Ec MG1655 WT. The class given is cell-based, Escherichia coli.
The test system of assay [8] is Haemophilus influenzae ATCC 49247. The description is as above. The class given is cell-based. The conditions noted are these: ATCC49247; Haemophilus influenzae ATCC 49247; 16-20 h; mode of three independent experiments; read-out: MIC, Hi ATCC 49247.
Assay [9] relates to Pseudomonas aeruginosa ATCC 27853. The description is as above. The conditions noted are these: ATCC27853; Pseudomonas aeruginosa ATCC 27853; 16-20 h; mode of three independent experiments; read-out: MIC, Pa ATCC 27853. The class given is cell-based.
The test system of assay [10] is Staphylococcus aureus ATCC 29213. The description is as above. The class given is cell-based. The conditions noted are these: ATCC29213; Staphylococcus aureus ATCC 29213; 16-20 h; mode of three independent experiments; read-out: MIC, Sa ATCC 29213.
Assay [11] relates to Enterococcus faecalis ATCC 29212. The assay is described as above. To be noted: ATCC29212, 16-20 h, mode of three independent experiments, read-out: MIC, Ef ATCC 29212. The assay is classed as cell-based.
The test system of assay [12] is Enterococcus faecium ATCC 19434. The description is as above. The class given is cell-based. To be noted: ATCC19434, 16-20 h, mode of three independent experiments, read-out: MIC, Efm ATCC 19434.
The subject of assay [13] is fluoroquinolone-resistant Enterococcus faecium ATCC 700221. The assay is described as above. The class given is cell-based. The conditions noted are these: ATCC700221, 16-20 h, mode of three independent experiments, read-out: MIC, Efm ATCC 700221.
The subject of assay [14] is Streptococcus pneumoniae ATCC 49619. The assay is described as above. The assay is classed as cell-based. To be noted: ATCC49619; Streptococcus pneumoniae ATCC 49619; 16-20 h; mode of three independent experiments; read-out: MIC, Sp ATCC 49619.
Assay [15] relates to E. coli MG1655 S83L. The class given is cell-based, Escherichia coli. To be noted: compared to the isogenic parent strain E. coli MG1655; S83L mutation on DNA gyrase subunit GyrA.
Assay [16] concerns E. coli MG1655 D87G. The assay is classed as cell-based, Escherichia coli. The conditions noted are these: compared to the isogenic parent strain E. coli MG1655; D87G mutation on DNA gyrase subunit GyrA.
For assay [17], the system named is human hepatic cell line (HepG2 ATCC HB-8065). The experiment in a line: Human cell viability assay (CellTiter-Glo). The conditions noted are these: Homo sapiens, HepG2, 24 h, read-out: IC50 (μg/mL) HepG2. Background: ATP-based viability assays read luminescence as a measure of living cells.

As to `COc1ccc2ncc(=O)n(CCNC3CCC4C(C3)OC(=O)N4c3ccc4c(n3)NC(=O)CO4)c2n1` (stereo in doubt) [Compound 43, (3aR,6R,7aR)-6-[(2-{6-methoxy-3-oxo-3H,4H-pyrido[2,3-b]pyrazin-4-yl}ethyl)amino]-3-{3-oxo-2H,3H,4H-pyrido[3,2-b][1,4]oxazin-6-yl}-octahydro-1,3-benzoxazol-2-one], the MIC in assay [1], in assay [2], in [3], in assay [4], in assay [5] and in assay [6] was less than 1 µg/mL in each case. The MIC in [7], in [8], in assay [9], in assay [10], in [11] and in assay [12] was less than 1 µg/mL each time. In addition, the MIC in assay [13] and in [14] was less than 1 µg/mL throughout. Besides, the “Fold increase in MIC, E. coli MG1655 S83L” value in assay [15] is 1 fold. Moreover, the “Fold increase in MIC, E. coli MG1655 D87G” value in [16] came to 0.5 fold. Moreover, the IC50 in assay [17] is more than 100 µg/mL.
Turning to `O=C1COc2ccc(N3C(=O)O[C@H]4C[C@@H](NCCn5c(=O)cnc6cc(F)c(F)cc65)CC[C@@H]43)nc2N1` [Compound 34, 1-(2-{[(3aS,6S,7aS)-2-oxo-3-{3-oxo-2H,3H,4H-pyrido[3,2-b][1,4]oxazin-6-yl}-octahydro-1,3-benzoxazol-6-yl]amino}ethyl)-6,7-difluoro-1,2-dihydroquinoxalin-2-one], the MIC in assay [1], in [2], in assay [3], in assay [4], in assay [5] and in assay [6] was less than 1 µg/mL throughout. For the same compound, the MIC in assay [7] is less than 1 µg/mL; in assay [8], less than 1 µg/mL; in assay [9], 1 to 10 µg/mL (≈ 1.95 to 19.5 µM); in assay [10], less than 1 µg/mL; in assay [11], less than 1 µg/mL; in assay [12], less than 1 µg/mL. Besides, the MIC in [13] and in [14] was less than 1 µg/mL each time. In addition, in assay [15], the “Fold increase in MIC, E. coli MG1655 S83L” value was 1 fold. The “Fold increase in MIC, E. coli MG1655 D87G” value in [16] amounted to 2 fold.
For the compound `N#Cc1cccc(-c2cccc(CN[C@@H]3CC[C@@H]4[C@@H](C3)OC(=O)N4c3ccc4c(n3)NC(=O)CO4)c2O)n1` [Compound 40, 6-[3-({[(3aR,6R,7aR)-2-oxo-3-{3-oxo-2H,3H,4H-pyrido[3,2-b][1,4]oxazin-6-yl}-octahydro-1,3-benzoxazol-6-yl]amino}methyl)-2-hydroxyphenyl]pyridine-2-carbonitrile], the MIC in assay [1], in assay [2], in [3], in assay [4], in [5] and in assay [6] was less than 1 µg/mL throughout. Also, the MIC in [7], in assay [8], in assay [9], in assay [10], in assay [11] and in assay [12] was less than 1 µg/mL in each case. Besides, the MIC is less than 1 µg/mL in [13] and 1 to 10 µg/mL (≈ 1.95 to 19.5 µM) in assay [14]. Besides, the “Fold increase in MIC, E. coli MG1655 S83L” value in assay [15] is recorded as 1 fold. Also, in assay [16], the “Fold increase in MIC, E. coli MG1655 D87G” value stood at 1 fold. Besides, in assay [17], the IC50 fell in the range of 10 to 100 µg/mL (≈ 19.5 to 195 µM).
For the compound `N#Cc1ccc2ccc(=O)n(CCN[C@@H]3CC[C@@H]4[C@@H](C3)OC(=O)N4c3ccc4c(n3)NC(=O)CO4)c2c1` [Compound 59, 1-(2-{[(3aR,6R,7aR)-2-oxo-3-{3-oxo-2H,3H,4H-pyrido[3,2-b][1,4]oxazin-6-yl}-octahydro-1,3-benzoxazol-6-yl]amino}ethyl)-2-oxo-1,2-dihydroquinoline-7-carbonitrile], the MIC in assay [1], in assay [2], in assay [3], in assay [4], in [5] and in assay [6] was less than 1 µg/mL each time. In addition, the MIC in [7], in assay [8], in assay [9], in [10], in [11] and in assay [12] was less than 1 µg/mL in each case. Further, the MIC in assay [13] and in assay [14] was less than 1 µg/mL in each case. In assay [15], the “Fold increase in MIC, E. coli MG1655 S83L” value is listed as 1 fold. Besides, in assay [16], the “Fold increase in MIC, E. coli MG1655 D87G” value came out at 1 fold. For the same compound, in assay [17], the IC50 lay within 10 to 100 µg/mL (≈ 20 to 200 µM).
Regarding `COc1ccc2ccc(=O)n(CCN[C@H]3CC[C@H]4[C@H](C3)OC(=O)N4c3ccc4c(n3)NC(=O)CS4)c2n1` [Compound 61, 1-(2-{[(3aS,6S,7aS)-2-oxo-3-{3-oxo-2H,3H,4H-pyrido[3,2-b][1,4]thiazin-6-yl}-octahydro-1,3-benzoxazol-6-yl]amino}ethyl)-7-methoxy-1,2-dihydro-1,8-naphthyridin-2-one], the MIC in assay [1], in assay [2], in assay [3], in assay [4], in [5] and in assay [6] was less than 1 µg/mL in each case. The MIC in assay [7], in assay [8], in [9], in assay [10], in assay [11] and in assay [12] was less than 1 µg/mL throughout. In addition, the MIC in assay [13] and in assay [14] was less than 1 µg/mL in each case. Also, in assay [15], the “Fold increase in MIC, E. coli MG1655 S83L” value was 1 fold. For the same compound, the “Fold increase in MIC, E. coli MG1655 D87G” value in [16] is 1 fold. In addition, the IC50 in [17] is 10 to 100 µg/mL (≈ 19.1 to 191 µM).
Take `COc1cccc(-c2cccc(CN[C@@H]3CC[C@@H]4[C@@H](C3)OC(=O)N4c3ccc4c(n3)NC(=O)CO4)c2)n1` [Compound 80, (3aR,6R,7aR)-6-({[3-(6-methoxypyridin-2-yl)phenyl]methyl}amino)-3-{3-oxo-2H,3H,4H-pyrido[3,2-b][1,4]oxazin-6-yl}-octahydro-1,3-benzoxazol-2-one]: the MIC was less than 1 µg/mL in [1]; less than 1 µg/mL in [2]; 1 to 10 µg/mL (≈ 1.99 to 19.9 µM) in assay [3]; less than 1 µg/mL in assay [4]; less than 1 µg/mL in assay [5]; less than 1 µg/mL in [6]. The MIC in assay [7] is less than 1 µg/mL; in [8] it was less than 1 µg/mL; in assay [9], 1 to 10 µg/mL (≈ 1.99 to 19.9 µM); in [10], less than 1 µg/mL; in [11], less than 1 µg/mL; in assay [12] it was 1 to 10 µg/mL (≈ 1.99 to 19.9 µM). Besides, the MIC in assay [13] and in assay [14] was 1 to 10 µg/mL (≈ 1.99 to 19.9 µM) throughout. For the same compound, in [15], the “Fold increase in MIC, E. coli MG1655 S83L” value amounted to 1 fold. The “Fold increase in MIC, E. coli MG1655 D87G” value in [16] stood at 1 fold. Further, the IC50 in assay [17] lay in the range of 10 to 100 µg/mL (≈ 19.9 to 199 µM).
Regarding `COc1ccc2ccc(=O)n(CCN[C@H]3CC[C@H]4[C@H](C3)OC(=O)N4c3ccc4c(n3)NC(=O)CO4)c2c1` [Compound 102, 1-(2-{[(3aS,6S,7aS)-2-oxo-3-{3-oxo-2H,3H,4H-pyrido[3,2-b][1,4]oxazin-6-yl}-octahydro-1,3-benzoxazol-6-yl]amino}ethyl)-7-methoxy-1,2-dihydroquinolin-2-one], the MIC in assay [1], in [2], in assay [3], in [4], in assay [5] and in [6] was less than 1 µg/mL throughout. Moreover, the MIC in assay [7] was less than 1 µg/mL; in assay [9], 1 to 10 µg/mL (≈ 1.98 to 19.8 µM); in [10], less than 1 µg/mL; in assay [11], less than 1 µg/mL; in assay [12] it was less than 1 µg/mL; in assay [13], less than 1 µg/mL. The MIC in assay [14] was less than 1 µg/mL. Further, the “Fold increase in MIC, E. coli MG1655 S83L” value in assay [15] came out at 2 fold. The “Fold increase in MIC, E. coli MG1655 D87G” value in assay [16] came out at 2 fold. For the same compound, the IC50 in assay [17] fell in the range of 10 to 100 µg/mL (≈ 19.8 to 198 µM).

These data come from US10487093B2, “Heterocyclic compounds, in particular 2-oxo-4,4,5,5,6,6,7,7-octahydrobenzoxazole derivatives, and their use as antibacterial compounds” (priority 2016, dated 2019).
